Patent publication US11407724B2, “Process for the production of cannabinoids” (Bessor Pharma, LLC, priority 2018, dated 2022)

System: TRPV 1 channels
Assay: Calcium assay (Fluo-4) in HEK-TRPV1 cells, dose response comparison
Type: cell-based
Conditions: Fluo-4 loaded, 1 mM external calcium chloride, 0-20 seconds baseline, compound added at 20 seconds, synthesized vs Sigma-sourced CBD (FIGS. 1A-1D)
Method: Molecular Pharmacology, 2016, volume 90, pages 300-308) HEK 293 cells with TRPV1 channels have been used as model systems (P. Geppetti and M. Trevisani, Activation and sensitisation of the vanilloid receptor: role in gastrointestinal inflammation and function, British Journal of Pharmacology, 2004, volume 141, pages 1313-1320);
HEK TRexTRPV1 cultured in DMEM, 10% Fetal Bovine Serum, 2 mM L-glutamine, 10 microgramg/ml Blasticidin (Calbiochem, San Diego Calif.), […] Zeocin (InvivoGen, San Diego Calif.), followed by inducing indicated transgene expression using 1 microgram/ml Tetracycline for 16-24 hrs. Comparisons made to untransfected HEK cells or HEKTRexTRPV1 with or without induction.
Cells washed and incubated with 0.2 micromolar Fluo-4 [54] for 30 minutes at 37° C. in a standard modified Ringer's solution of the following composition (in mM): NaCl 145, KCl 2.8, CsCl 10, CaCl2 10, MgCl2 2, glucose 10, Hepes-NaOH 10, pH 7.4, 330 mOsm. Cells transferred to 96-well plates at 50,000 cells/well and stimulated as indicated. Calcium signals acquired using a Flexstation 3 (Molecular Devices, Sunnydale, USA). Data are analyzed according to the methods in I. Díaz-Franulic, J. Caceres-Molina, R. V. Sepulveda, F. Gonzalez-Nilo, R. Latorre, Structure-Driven Pharmacology of Transient Receptor Potential Channel Vanilloid 1, Molecular Pharmacology, 2016, volume 90, pages 300-8. […]

C=C(C)[C@@H]1CCC(C)=C[C@H]1c1c(O)cc(CCCCC)cc1O [cannabidiol (11, CBD), Cannabidiol]
“biological finger print” and dose response on TRPV 1 channels: the same “biological finger print” and dose response
